In US8901313B2, “6,5-heterocyclic propargylic alcohol compounds and uses therefor” (Genentech, Inc., priority 2011, dated 2014):

What was measured:
[1] = test system: NF-kB signaling through NIK in human embryonic kidney 293 cells; assay: 293-NIK NF-kB-Luciferase reporter assay; type: cell-based; conditions: HEK293, 293 cells with tetracycline-inducible NIK, 1 ug/mL doxycycline, 24 hours, read-out: inhibitory value (IC50) for 293-NIK NF-kB-Luciferase activity
Text: (1) The first assay was used to profile whether a test compound can inhibit the NF-kB signally through NIK inhibition without affecting cell viability. In this assay, human embryonic kidney 293 cells was stably transfected with a tetracycline-inducible NIK DNA construct containing a cytomegalovirus promoter plus two reporter DNA constructs. One reporter encoded firefly luciferase under the control of three repeats of an NF-kB response element from the ELAM-1 gene and reflects the level of NIK activity in the cells, whereas the other reporter constitutively expressed Renilla luciferase under the control of the herpes simplex virus thymidine kinase promoter and served as a general measure of cell viability. Cells were incubated with different concentrations of compounds (0.2% DMSO final) in medium containing 1 ug/mL doxycycline and 10% tet-system approved fetal bovine serum (Clontech) for 24 hours, after which the reporters' signals were detected using the Dual Glo luciferase detection system (Promega) according to the vendor's protocol. The compounds listed in Table 1 have the corresponding inhibitory value (IC50 in micromolar) for 293-NIK NF-kB-Luciferase activity (values for compounds are presented in the same order as found in Table 1): na, 0.059, na, na, na, 0.105, 0.027, na, 20, 1.2, na, 1.8, 0.0231, 0.879, 0.0361, 0.582, na, 0.142, na, 0.403, 0.059, 0.0331, na, na, 0.0573, 1.5, na, na, 0.0722, na, na, 0.589, 12.7, 3.7, 14.9, na, 0.707, 1, 0.0311, 0.332, 0.309, 0.0142, 0.051, 2.8, 0.129, na, na, 1.5, na, na, na, 1.3, 0.062, 20, 0.31, 0.104, 0.091, 0.037, 0.085, 0.279, na, 0.305, 0.064, 0.332, 0.133, 0.168, 0.217, 0.553, na and na.

[2] = target: T1, nuclear factor-kappa B (NF-kB)-inducing kinase (NIK) (Homo sapiens, UniProt Q99558); assay: NIK Enzyme Inhibition Assay (Transcreener ADP assay); type: biochemical; conditions: purified NIK 0.2-1 nM, 10 uM ATP, fluorescence polarization, Morrison's quadratic equation; read-out: inhibitory value (Ki) for NIK
T1 construct: made in house; host or cells: baculovirus-infected insect cells

[3] = test system: p52 (NF-kB2) nuclear translocation in HeLa cells; assay: NIK p52 Translocation Assay (non-classical NF-kB signaling); type: cell-based; conditions: Homo sapiens; HeLa cells, 100 ng/mL anti-lymphotoxin beta receptor antibody, 5 hours; read-out: inhibitory value (IC50) for NIK p52 Translocation Assay
Method: (2) A second set of cell assay was used to define the selectivity of NIK inhibitors toward inhibition of classical vs. non-classical NF-kB signaling and rely on quantification of the nuclear translocation of p52 (NF-kB2) and REL-A (p65) using high content cellular imaging. For the p52 (non-classical NF-kB signaling) nuclear translocation assay, HeLa cells were treated with different concentrations of compounds (0.2% DMSO final) in medium containing 10% fetal bovine serum and then stimulated with 100 ng/mL of an anti-lymphotoxin beta receptor antibody (R&D Systems) for 5 hours. In the REL-A nuclear translocation assay, HeLa cells were incubated with compounds (0.2% DMSO final) for 4.5 hours in medium containing 10% fetal bovine serum before stimulating them with 10 ng/mL tumor necrosis factor (TNF)-α (R&D Systems) for 30 minutes. Cells were fixed with 4% paraformaldehyde, permeabilized by adding 0.1% Triton X-100 in phosphate buffered saline, and then incubated with either 2 ug/mL anti-p52 antibody (Millipore) or 400 ng/mL anti-REL-A (p65) antibody (Santa Cruz Biotechnology). Finally, the cells were incubated with an Alexa488-labeled secondary antibody (Invitrogen) and DRAQ5 DNA stain (Biostatus). Imaging was carried out using an Opera reader (Perkin Elmer) and data are analyzed with the aid of Acapella software (Perkin Elmer). The p52 or REL-A translocation into the nucleus was quantified by the ratio of the nuclear to cytoplasmic signal intensity. The concentration of inhibitor required for 50% inhibition (IC50 values) in these cell assays were derived from the plots of signal vs. inhibitor concentration. The compounds in listed in Table 1 have the corresponding inhibitory value (IC50 in micromolar) for NIK p52 Translocation Assay (values for compounds are presented in the same order as found in Table 1, and “na” means the data for this assay is to be determined): 0.326, 0.33, na, na, na, 0.218, 0.07, na, na, na, 0.129, 7.6, 0.077, 3.4, na, 0.518, na, 0.059, 0.514, 0.127, na, na, 0.010, na, na, 0.313, 0.275, na, 0.0727, na, na, na, na, na, na, 0.194, na, 6.4, 0.22, 0.346, na, na, na and na, na, na, na, na, na, 0.447, na, 0.089, 0.479, 0.489, 0.243, 0.747, 1, na, 1.9, 0.552, 2.1, na. na, na, na, na and na.

T1 sequence (Q99558 whole entry): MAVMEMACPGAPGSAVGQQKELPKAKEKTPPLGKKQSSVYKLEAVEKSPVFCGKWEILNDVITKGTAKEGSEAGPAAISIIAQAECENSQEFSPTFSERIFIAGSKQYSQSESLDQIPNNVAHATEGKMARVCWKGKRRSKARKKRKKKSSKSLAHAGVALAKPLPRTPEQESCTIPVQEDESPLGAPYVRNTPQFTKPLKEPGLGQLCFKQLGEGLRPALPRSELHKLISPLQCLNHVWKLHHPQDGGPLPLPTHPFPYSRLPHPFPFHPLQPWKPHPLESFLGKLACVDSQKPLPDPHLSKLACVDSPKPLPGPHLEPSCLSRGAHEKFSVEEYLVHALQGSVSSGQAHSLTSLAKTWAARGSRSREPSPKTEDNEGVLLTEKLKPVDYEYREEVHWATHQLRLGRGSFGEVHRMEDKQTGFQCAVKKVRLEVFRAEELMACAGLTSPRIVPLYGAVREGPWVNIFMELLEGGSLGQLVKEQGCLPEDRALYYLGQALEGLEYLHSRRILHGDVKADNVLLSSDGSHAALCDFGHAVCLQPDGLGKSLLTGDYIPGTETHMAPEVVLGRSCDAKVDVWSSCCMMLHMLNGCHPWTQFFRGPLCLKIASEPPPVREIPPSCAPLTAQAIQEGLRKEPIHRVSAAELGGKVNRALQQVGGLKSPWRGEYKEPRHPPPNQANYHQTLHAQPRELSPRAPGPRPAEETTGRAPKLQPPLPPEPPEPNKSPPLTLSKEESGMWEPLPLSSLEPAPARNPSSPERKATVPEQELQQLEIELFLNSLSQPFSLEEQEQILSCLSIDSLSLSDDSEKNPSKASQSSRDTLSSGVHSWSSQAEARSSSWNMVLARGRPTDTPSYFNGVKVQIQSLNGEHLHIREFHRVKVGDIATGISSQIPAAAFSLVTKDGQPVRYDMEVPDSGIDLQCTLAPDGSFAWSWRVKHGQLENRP

Row | Structure (SMILES) | IC50 [1] | Ki [2] | IC50 [3]
1 | N#Cc1ccc2cnn(-c3nc(N)ncc3N)c2c1 [Example T1-9, 1-(2,5-diaminopyrimidin-4-yl)-1H-indazole-6-carbonitrile] | 20000 nM | 45.9 nM | –
2 | CC1(C(=O)Nc2cnc(N)nc2-n2ncc3ccc(C#N)cc32)COC1 [Example T1-11, N-(2-amino-4-(6-cyano-1H-indazol-1-yl)pyrimidin-5-yl)-3-methyloxetane-3-carboxamide] | – | 559 nM | 129 nM
3 | Cc1nc2ccc(C#CC(C)(O)c3nccs3)cc2n1-c1ccnc(N)n1 (stereo not shown) [Example T1-12, 4-(1-(2-aminopyrimidin-4-yl)-2-methyl-1H-benzo[d]imidazol-6-yl)-2-(thiazol-2-yl)but-3-yn-2-ol] | 1800 nM | 9.3 nM | 7600 nM
4 | CC(O)(C#Cc1ccc2cnn(-c3ccnc(N)n3)c2c1)C(F)F (stereo not shown) [Example T1-19, 4-(1-(2-aminopyrimidin-4-yl)-1H-indazol-6-yl)-1,1-difluoro-2-methylbut-3-yn-2-ol] | – | 190 nM | 514 nM
5 | COc1ncccc1Nc1ncnc(-n2ncc3ccc(C#N)cc32)n1 [Example T1-23, 1-(4-(2-methoxypyridin-3-ylamino)-1,3,5-triazin-2-yl)-1H-indazole-6-carbonitrile] | – | > 5000 nM | 10 nM
6 | CC(O)(C#Cc1ccc2ncn(-c3ccnc(N)n3)c2c1)C(F)(F)F (stereo not shown) [Example T1-27, 4-(1-(2-aminopyrimidin-4-yl)-1H-benzo[d]imidazol-6-yl)-1,1,1-trifluoro-2-methylbut-3-yn-2-ol] | – | 570 nM | 275 nM
7 | CC(O)(C#Cc1ccc2ncn(-c3ccnc(N)n3)c2c1)c1cn[nH]c1 (stereo not shown) [Example T1-33, 4-(1-(2-aminopyrimidin-4-yl)-1H-benzo[d]imidazol-6-yl)-2-(1H-pyrazol-4-yl)but-3-yn-2-ol] | 12700 nM | 23 nM | –
8 | CC(O)(C#Cc1ccc2ncn(-c3ccnc(N)n3)c2c1)C1CC1 (stereo not shown) [Example T1-34, 4-(1-(2-aminopyrimidin-4-yl)-1H-benzo[d]imidazol-6-yl)-2-cyclopropylbut-3-yn-2-ol] | 3700 nM | 92.1 nM | –
9 | CC(O)(C#Cc1ccc2cnn(-c3ccnc(N)n3)c2c1)c1cn[nH]c1 (stereo not shown) [Example T1-35, 4-(1-(2-aminopyrimidin-4-yl)-1H-indazol-6-yl)-2-(1H-pyrazol-4-yl)but-3-yn-2-ol] | 14900 nM | 18 nM | –
10 | CC(C)(O)C#Cc1ccc2cnn(-c3cc(N)ncn3)c2c1 [Example T1-36, 4-(1-(6-aminopyrimidin-4-yl)-1H-indazol-6-yl)-2-methylbut-3-yn-2-ol] | – | 850 nM | 194 nM
11 | CC(O)(C#Cc1ccc2ncn(-c3ccnc(N)n3)c2c1)CF (stereo not shown) [Example T1-37, 4-(1-(2-aminopyrimidin-4-yl)-1H-benzo[d]imidazol-6-yl)-1-fluoro-2-methylbut-3-yn-2-ol] | 707 nM | 2.3 nM | –
12 | CC(O)(C#Cc1ccc2ncn(-c3nccc(N)n3)c2c1)c1nccs1 (stereo not shown) [Example T1-50, 4-(1-(4-aminopyrimidin-2-yl)-1H-benzo[d]imidazol-6-yl)-2-(thiazol-2-yl)but-3-yn-2-ol] | – | 152 nM | 447 nM
13 | Cc1nonc1C(C)(O)C#Cc1ccc2c(C)nn(-c3ccnc(N)n3)c2c1 (stereo not shown) [Example T1-61, 4-(1-(2-aminopyrimidin-4-yl)-3-methyl-1H-indazol-6-yl)-2-(4-methyl-1,2,5-oxadiazol-3-yl)but-3-yn-2-ol] | – | 383 nM | 2100 nM
14 | CC(O)(C#Cc1ccc2c(C(=O)N3CC4CC4C3)nn(-c3ccnc(N)n3)c2c1)c1ncccn1 (stereo not shown) [Example T1.1-140, [1-(2-aminopyrimidin-4-yl)-6-(3-hydroxy-3-pyrimidin-2-yl-but-1-ynyl)indazol-3-yl]-(3-azabicyclo[3.1.0]hexan-3-yl)methanone] | – | 5.28 nM | –
15 | CN(C(=O)c1nn(-c2ccnc(N)n2)c2cc(C#CC(C)(O)c3ncccn3)ccc12)c1ccccn1 (stereo not shown) [Example T1.1-142, 1-(2-aminopyrimidin-4-yl)-6-(3-hydroxy-3-pyrimidin-2-yl-but-1-ynyl)-N-methyl-N-(2-pyridyl)indazole-3-carboxamide] | – | 7 nM | –
16 | CC(O)(C#Cc1ccc2c(C(=O)Nc3cccnc3)nn(-c3ccnc(N)n3)c2c1)c1ncccn1 (stereo not shown) [Example T1.1-143, 1-(2-aminopyrimidin-4-yl)-6-(3-hydroxy-3-pyrimidin-2-yl-but-1-ynyl)-N-(3-pyridyl) indazole-3-carboxamide] | – | 2 nM | –
17 | CC(O)(C#Cc1ccc2c(C(=O)N3CCOCC3)nn(-c3ccnc(N)n3)c2c1)c1ncco1 (stereo not shown) [Example T1.1-144, [1-(2-aminopyrimidin-4-yl)-6-(3-hydroxy-3-oxazol-2-yl-but-1-ynyl)indazol-3-yl]-morpholino-methanone] | – | 3 nM | –
18 | CC(O)(C#Cc1ccc2c(C(=O)N3CCCC(O)C3)nn(-c3ccnc(N)n3)c2c1)c1ncccn1 (stereo not shown) [Example T1.1-145, [1-(2-aminopyrimidin-4-yl)-6-(3-hydroxy-3-pyrimidin-2-yl-but-1-ynyl)indazol-3-yl]-(3-hydroxy-1-piperidyl)methanone] | – | 11 nM | –
19 | CC(O)(C#Cc1ccc2c(C(=O)N3CC(O)C3)nn(-c3ccnc(N)n3)c2c1)c1ncccn1 (stereo not shown) [Example T1.1-146, [1-(2-aminopyrimidin-4-yl)-6-(3-hydroxy-3-pyrimidin-2-yl-but-1-ynyl)indazol-3-yl]-(3-hydroxyazetidin-1-yl)methanone] | – | 3400 nM | –
20 | CC(O)(C#Cc1ccc2c(C(=O)N3CC(C#N)C3)nn(-c3ccnc(N)n3)c2c1)c1ncccn1 (stereo not shown) [Example T1.1-147, 1-[1-(2-aminopyrimidin-4-yl)-6-(3-hydroxy-3-pyrimidin-2-yl-but-1-ynyl)indazole-3-carbonyl]azetidine-3-carbonitrile] | – | 4 nM | –
21 | CC(O)(C#Cc1ccc2c(C(=O)NC3COC3)nn(-c3ccnc(N)n3)c2c1)c1ncccn1 (stereo not shown) [Example T1.1-148, 1-(2-aminopyrimidin-4-yl)-6-(3-hydroxy-3-pyrimidin-2-yl-but-1-ynyl)-N-(oxetan-3-yl)indazole-3-carboxamide] | – | 0.1 nM | –
22 | CC(O)(C#Cc1ccc2c(C(=O)N3CCOCC3)nn(-c3ccnc(N)n3)c2c1)c1ncccn1 (stereo not shown) [Example T1.1-149, [1-(2-aminopyrimidin-4-yl)-6-(3-hydroxy-3-pyrimidin-2-yl-but-1-ynyl)indazol-3-yl]-morpholino-methanone] | – | 0.3 nM | –
23 | CC(O)(C#Cc1ccc2c(C(=O)NCC#N)nn(-c3ccnc(N)n3)c2c1)c1ncccn1 (stereo not shown) [Example T1.134, 1-(2-aminopyrimidin-4-yl)-N-(cyanomethyl)-6-(3-hydroxy-3-pyrimidin-2-yl-but-1-ynyl) indazole-3-carboxamide] | – | 2 nM | –
